The values that follow come from US4767762A, “Tricyclic quinoline and naphthyride antibacterials” (Abbott Laboratories, priority 1986, dated 1988).

Assay in all cases: in vitro antibacterial activity (MIC), conventional agar dilution
Common to all, as to assay type: cell-based
For orientation: In agar dilution, organisms are placed on agar that contains the substance at set levels.

One assay deals with K. pneumoniae ATCC 8045. Conditions: Klebsiella pneumoniae, ATCC8045, brain-heart infusion agar, inoculum 10^4 /plate. The protocol: (§1) The in vitro antibacterial activity is determined by conventional agar dilution procedures. A brain-heart infusion agar medium containing the drug is inoculated with a microbial culture cultivated on a brain-infusion broth (Difco 0037-01-6) at 36° C. for 18 hours and then observes for growth of the microorganism. The minimum concentration at which growth of the microorganism is inhibited is taken as MIC (ug/ml). The inoculum size is 10^4 /plate.

Another assay has as its system Strep. Pyogenes EES61. Conditions: Streptococcus pyogenes, brain-heart infusion agar, inoculum 10^4 /plate. The protocol:
as §1

The next assay has as its system Stap. epidermis 3519. To be noted: brain-heart infusion agar, inoculum 10^4 /plate. Here is the method: as §1
The subject of another assay is P. stuartii CMX 640. To be noted: Providencia stuartii, CMX640, brain-heart infusion agar, inoculum 10^4 /plate. Here is the method:
as §1

Assay [1] deals with Ent. aerogenes ATCC 13048. Conditions: Klebsiella aerogenes, ATCC13048, brain-heart infusion agar, inoculum 10^4 /plate. Here is the method: as §1
A further assay concerns Ent. faecium ATCC 8043. Conditions: Enterococcus faecium, ATCC8043, brain-heart infusion agar, inoculum 10^4 /plate. Here is the method: as §1
The test system of another assay is Acinetobacter sp CMX 669. Conditions: CMX669, brain-heart infusion agar, inoculum 10^4 /plate. Here is the method:
as §1

A further assay deals with P. aeruginosa A5007. To be noted: Pseudomonas aeruginosa, brain-heart infusion agar, inoculum 10^4 /plate. Here is the method:
as §1

The subject of another assay is Stap. aureus ATCC-6538p. To be noted: Staphylococcus aureus, ATCC6538P, brain-heart infusion agar, inoculum 10^4 /plate. Here is the method:
as §1

The test system of another assay is E. coli Juhl. To be noted: Escherichia coli, brain-heart infusion agar, inoculum 10^4 /plate. Here is the method: as §1

Converted amounts (≈) assume the structure as drawn.

By MIC is commonly meant the lowest concentration found to suppress growth. A lower MIC goes with inhibition by little substance. Consider `CCn1c2s[nH]c(=O)c2c(=O)c2cc(F)c(N3CCN(C)CC3)c(F)c21` [46(cc), 9-ethyl-6,8-difluoro-7-(4-methyl-1-piperazinyl)-2,3,4,9-tetrahydroisothiazolo[5,4-b]quinoline-3,4-dione], for which the MIC with K. pneumoniae ATCC 8045 worked out at 0.05 µg/mL (≈ 0.131 µM); against Strep. Pyogenes EES61, 0.78 µg/mL (≈ 2.05 µM); with Stap. epidermis 3519, 0.2 µg/mL (≈ 0.526 µM); in the assay with P. stuartii CMX 640, 3.1 µg/mL (≈ 8.15 µM); in [1], 0.2 µg/mL (≈ 0.526 µM); against Ent. faecium ATCC 8043, 0.39 µg/mL (≈ 1.03 µM). For the same molecule, the MIC in the assay on Acinetobacter sp CMX 669 is 0.1 µg/mL (≈ 0.263 µM); with P. aeruginosa A5007, 3.1 µg/mL (≈ 8.15 µM); in the assay with Stap. aureus ATCC-6538p, 0.1 µg/mL (≈ 0.263 µM); against E. coli Juhl, 0.1 µg/mL (≈ 0.263 µM).
